These are literature values, as cited in paper PMC3202968 (Journal of the American Chemical Society, 2010).

As for `Cc1cc(C)nc(N)c1` [2-amino-4,6-dimethylpyridine], the pKa result is recorded as “about 7.1”.
